From ChEMBL document CHEMBL5154879, “Induction of Genes Implicated in Stress Response and Autophagy by a Novel Quinolin-8-yl-nicotinamide QN523 in Pancreatic Cancer” (J Med Chem, 2022)
pIC50: −log10 of the molar value. The source made the active and inactive calls. No cut-off for these calls is given here.

Legend:
MIA PaCa-2 [1] = assay: Downregulation of G2M checkpoint gene expression in human MIA PaCa-2 cells by gene set enrichment analysis; format: functional, cell-based
[2] = Cytotoxicity against human HFF-1 cells assessed as inhibition of cell growth incubated for 72 hrs by MTT assay; format: toxicity, cell-based
MIA PaCa-2 [3] = assay: Cytotoxicity against human MIA PaCa-2 cells assessed as inhibition of cell growth incubated for 72 hrs by MTT assay; format: functional, cell-based; conditions: MIA PaCa-2, 72 h
[4] = Downregulation of H2AFX gene expression in human MIA PaCa-2 cells assessed as fold change in H2AFX expression at 1 uM incubated for 24 hrs by Bru-seq analysis relative to control; format: functional
[5] = Upregulation of ARG2 gene expression in human MIA PaCa-2 cells assessed as fold change in ARG2 expression at 1 uM incubated for 24 hrs by Bru-seq analysis relative to control; format: functional
MIA PaCa-2 [6] = assay: Induction of cell cycle arrest in human MIA PaCa-2 cells assessed as accumulation of cells in G2/M phase at 0.1 uM incubated for 24 hrs by RNase/propidium iodide staining based flow cytometry analysis (reference value: 8.11%); format: functional
MIA PaCa-2 [7] = assay: Induction of UPR pathway in human MIA PaCa-2 cells by ingenuity pathway analysis; format: functional, cell-based
MIA PaCa-2 [8] = assay: Downregulation of E2F target gene expression in human MIA PaCa-2 cells by gene set enrichment analysis; format: functional, cell-based
MIA PaCa-2 [9] = assay: Upregulation of MTOR signalling in human MIA PaCa-2 cells by gene set enrichment analysis; format: functional, cell-based
[10] = Upregulation of TXNIP gene expression in human MIA PaCa-2 cells assessed as fold change in TXNIP expression at 1 uM incubated for 24 hrs by Bru-seq analysis relative to control; format: functional
[11] = Downregulation of CCDC85C gene expression in human MIA PaCa-2 cells assessed as fold change in CCDC85C expression at 1 uM incubated for 24 hrs by Bru-seq analysis relative to control; format: functional
MIA PaCa-2 [12] = assay: Antiproliferative activity against human MIA PaCa-2 cells assessed as inhibition of cell growth at 0.1 to 10 uM incubated for 1 to 72 hrs followed by compound washout with PBS and replacement with fresh culture medium and measured after 72 hrs by MTT assay; format: functional, cell-based; conditions: dose 0.1-10 µM, time 1-72 hrs, TDE = time-dependent effect
[13] = Downregulation of FGF18 gene expression in human MIA PaCa-2 cells assessed as fold change in FGF18 expression at 1 uM incubated for 24 hrs by Bru-seq analysis relative to control; format: functional
MIA PaCa-2 [14] = assay: Antitumor activity against human MIA PaCa-2 cells xenografted in NOD/SCID mouse assessed as tumor growth delay at 30 mg/kg, ip administered five times a week starting from day 44 to 51 post first dose; format: functional, organism-based; conditions: time 51.0 day
[15] = Downregulation of PLKI gene expression in human MIA PaCa-2 cells assessed as fold change in PLKI expression at 1 uM incubated for 24 hrs by Bru-seq analysis relative to control; format: functional
[16] = Downregulation of ESPL1 gene expression in human MIA PaCa-2 cells assessed as fold change in ESPL1 expression at 1 uM incubated for 24 hrs by Bru-seq analysis relative to control; format: functional
Hep 3B2 = assay: Antiproliferative activity against human Hep3B cells assessed as inhibition of cell growth incubated for 72 hrs by MTT assay; format: functional, cell-based
[17] = Upregulation of CXCL8 gene expression in human MIA PaCa-2 cells assessed as fold change in CXCL8 expression at 1 uM incubated for 24 hrs by Bru-seq analysis relative to control; format: functional
MIA PaCa-2 [18] = assay: Synergistic autophagy activity in human MIA PaCa-2 cells assessed as inhibition of colony formation at 0.001 to 0.1 uM incubated for 7 days in presence of autophagy inhibitor chloroquine by crystal violet staining based assay; format: functional, cell-based; conditions: dose 0.001-0.1 µM, time 7.0 day
MIA PaCa-2 [19] = assay: Antitumour activity against of human MIA PaCa-2 xenografted in NOD/SCID mouse assessed as reduction in Ki67 expression in tumor by immunohistochemical assay; format: functional
MIA PaCa-2 [20] = assay: Induction of cell cycle arrest in human MIA PaCa-2 cells assessed as accumulation of cells at S phase at 0.1 uM incubated for 24 hrs by RNase/propidium iodide staining based flow cytometry analysis (Rvb =27.6 %); format: functional
MIA PaCa-2 [21] = assay: Induction of autophagy in human MIA PaCa-2 cells assessed as accumulation of GABARAPL1 marker gene expression at upto 2 uM incubated for 72 hrs by Western blot analysis; format: functional, cell-based
MIA PaCa-2 [22] = assay: Induction of cell cycle arrest in human MIA PaCa-2 cells assessed as accumulation of cells at S phase at 0.1 uM incubated for 48 hrs by RNase/propidium iodide staining based flow cytometry analysis (Rvb =26.9 %); format: functional
MIA PaCa-2 [23] = assay: Upregulation of HSPA5 gene expression in human MIA PaCa-2 cells incubated for 72 hrs by Western blot analysis; format: functional, cell-based; conditions: DDE = dose-dependent effect
[24] = Toxicity in NOD/SCID mouse xenografted with human MIA PaCa- 2 cells assessed as morphological changes in kidney at 10 to 20 mg/kg, ip administered five times a week for 44 days by H and E staining based inverted microscopic analysis; format: organism-based; conditions: in vivo, 1056 h, dose 10-20 mg/kg, time 44 day
MIA PaCa-2 [25] = assay: Induction of apoptosis in human MIA PaCa-2 cells assessed as live cells at 0.1 uM incubated for 48 hrs by Annexin V-FITC/PI staining based flow cytometry analysis (reference value: 96.3%); format: functional

For O=C(Nc1cccc2cccnc12)c1cnccn1, the Activity (MIA PaCa-2 [1]) was “Active”, the IC50 at 72 h [2] was over 30 µM and the pIC50 (MIA PaCa-2 [3]) was 6.96. The “fold change (FC)” value [4] was 0.35, the “fold change (FC)” value [5] was 12 and the Activity (MIA PaCa-2 [6]) was 14.9%. The Activity (MIA PaCa-2 [7]) was “Active”, the Activity (MIA PaCa-2 [8]) was “Active” and the Activity (MIA PaCa-2 [9]) was “Active”. The “fold change (FC)” value [10] was 6, the “fold change (FC)” value [11] was 0.42 and the Activity (MIA PaCa-2 [12]) was “Tde”. The “fold change (FC)” value [13] was 0.32, the Activity (MIA PaCa-2 [14]) was “Active” and the “fold change (FC)” value [15] was 0.47. For the same molecule, the “fold change (FC)” value [16] was 0.4, the pIC50 (Hep 3B2) was 6.68 and the “fold change (FC)” value [17] was 6. For the same molecule, the Activity (MIA PaCa-2 [18]) was “Active”, the Activity (MIA PaCa-2 [19]) was “Active” and the Activity (MIA PaCa-2 [20]) was 33.2%. For the same molecule, the Activity (MIA PaCa-2 [21]) was “Active”, the Activity (MIA PaCa-2 [22]) was 29.4% and the Activity (MIA PaCa-2 [23]) was “Dde”. For the same molecule, the Activity [24] was “Non-Toxic” and the Activity (MIA PaCa-2 [25]) was 92%.
